Earlier results on five compounds are cited in US20110091549A1, “Modulating Drug Release Rate By Controlling The Kinetics Of The pH Transition In Hydrogels” (Confluent Surgical, Inc., priority 2009, published 2011).

Read-outs that look alike come from different tables or passages of the source.

The conditions of data set [1]: free base form compared with the salt form.
The mark [2] stands for this setting: drugs having a pKa of from about 7.4 to about 8.5.

Turning to `CN1CCN(C(c2ccccc2)c2ccc(Cl)cc2)CC1` (stereo not drawn) [Chlorcyclizine], the pKa under setting [2] is recorded as 7.8.

As to `COc1cccc2c1C(=O)c1c(O)c3c(c(O)c1C2=O)C[C@@](O)(C(=O)CO)C[C@@H]3O[C@H]1C[C@H](N)[C@H](O)[C@H](C)O1` [Doxorubicin], the pKa is 8.2.

For `CCCCN1CCCCC1C(=O)Nc1c(C)cccc1C` (stereo not drawn) [Bupivacaine, bupivacaine], in data set [1], the aqueous solubility entry is recorded as “lower aqueous solubility”. Further, the pKa entry (transition of the salt form into free base form) was “about 8.1”.

Consider `CCCN(CC)C(CC)C(=O)Nc1c(C)cccc1C` (stereo not drawn) [Etidocaine], for which the pKa under setting [2] is on record as 7.7.

Take `O=c1[nH]c(=O)n([C@H]2C[C@H](O)[C@@H](CO)O2)cc1Br` [Broxuridine]: the pKa under setting [2] is on record as 7.85.

By pKa is commonly meant the negative logarithm of the acid dissociation constant.
